According to patent US10799480B2, “Calixpyrrole-based antitumor compounds” (Giam Pharma International sarl, priority 2016, dated 2020):
Entries after “also recorded” stand apart in the source; their conditions may differ.

Experiments:
[1] = tested on: ovary carcinoma SKOV-3; assay: MTT test on ovary carcinoma SKOV-3 cell line; format: cell-based; conditions: for activity: SKOV-3, fragments; for EC50: Homo sapiens, SK-OV-3, SKOV-3
Description: (§1) Cellular vitality tests have been performed by using the derivatives of Formulas VII, I and III on due ovary carcinoma lines (SKOV-3 and A2774), two mammary carcinoma lines (MCF-7 and MDAMB-231) and two pulmonary carcinoma lines (H727 and A549). The compounds of Formulas I and III have further been tested in liposomal nanoparticles (NP) in comparison with the pulmonary carcinoma lines H727. The pulmonary carcinoma lines have been used also as target for determining the genotoxicity of the compounds of Formulas I and III, for determining the type of cellular death, through flow cytometry analyses, and for a preliminary analysis in vivo with toxicity determination and pharmacy-kinetics estimation (compound from Formula I).
(§2) The macrocycles of Formulas VII, I and III have been used in MTT tests on cellular lines derive from ovary carcinoma. […] The selectivity shown by the derivative of Formula I compared with a specific cellular line surely needs to be further analyzed as regards its operating mechanism.
(§3) A series of MTT tests have been performed by using the derivatives of Formulas VI, VIII, II and IV (such compounds can be considered as possible fragments of the macrocycles of Formulas V, VII, I and III). […] The results of these MTT tests show how the cytotoxic activity of the compounds of the invention has to be ascribed to the complete structure of the macrocycle having the acetyl function and not to any isolated component thereof.

[2] = tested on: pulmonary carcinoma A549; assay: MTT test on pulmonary carcinoma A549 cell line; format: cell-based; conditions: for efficacy: A549; for efficacy compared with Endoxan (cyclophosphamide): A549, various concentrations
Description: as §1
(§4) The derivatives of Formulas I and III have been used for a series of MTT tests at different concentrations, as such or from a formulation of lipid nanoparticles (NP), using cellular lines deriving from pulmonary carcinoma H727.
as §3

[3] = tested on: ovary carcinoma A2774; assay: MTT test on ovary carcinoma A2774 cell line; format: cell-based
Description: as §1, §2

[4] = tested on: pulmonary carcinoma H727; assay: MTT test on pulmonary carcinoma H727 cell line; format: cell-based; conditions: H727, different concentrations, as such or in lipid nanoparticles (NP)
Description: as §1, §4

[5] = tested on: mammary carcinoma MDAMB-231; assay: MTT test on mammary carcinoma MDAMB-231 cell line; format: cell-based; conditions: Homo sapiens, MDA-MB-231
Description: as §1
(§5) In particular, for both tumor cellular lines, the derivatives of Formulas I and III have EC50 of about 20 μM, while the derivative of Formula VII has a EC50 included between 20 and 30 μM, as shown in the graphs in FIG. 3 and FIG. 4.

[6] = tested on: NJ mice; conditions: in vivo
Description: (§6) A preliminary analysis for the toxicity in vivo has been performed by using the compound of Formula I on NJ mice. Due to the particularly hydrophobic nature of such derivative, after various attempts to determine the best solvent mixture, which is non-toxic for the animal, but which contains an adequate concentration of receptor, it has been decided to administer the compound using a mixture containing 10% of DMSO in olive oil. […] After 5 days, the mouse has been sacrificed and, through a HPLC/Mass analysis, the distribution of the compound inside the different compartments has been determined. The different tissues/organs (back sub-skin, spleen, omentum, heart, liver, brain, lung and kidney) have been removed, homogenized and analyzed. A high concentration of the compound of Formula I (determined through the computation of the peak area at m/z 546.31), corresponding to the analyzed compound [M-H]^−), has been observed in the injection site (Area 532.875) and in the spleen (Area 196.233), but the biggest amount has been discovered in the omentum (Area 1.237.999). Lower concentrations have been discovered in the kidney (Area 120.117), in the lung (Area 32.514) and in the heart (Area 29.443). A minimum amount of the compound has been detected in the liver (Area 11.293).

[7] = mouse, in vivo
Description: as §6

[8] = tested on: DNA of pulmonary carcinoma A549 cells; assay: Receptor-DNA adducts through 32P marking; format: cell-based; conditions: A549, butanol enrichment
[9] = tested on: pulmonary carcinoma A549; assay: Flow cytometry analysis of type of cellular death; format: cell-based
Description: as §1
The cellular lines A549 treated with the compound of Formula I show 38.80% of apoptosis (9.05% early apoptosis and 29.75% late apoptosis) compared with a 9.30% of necrosis. The same cells treated with the compound of Formula III show 23.45% of total apoptosis (10.25% early apoptosis and 13.20% late apoptosis) against 4.75% of necrosis.

[10] = tested on: pulmonary carcinoma A549; assay: COMET test (DNA fragmentation); format: cell-based; conditions: concentrations from 5 to 50 μM, with respect to standard K
Description: These latter data are mainly affected by the fact that this technique is not able to detect dead cells, and, in case of compounds of Formulas I and III, such percentage, as previously seen, is relevant.

[11] = tested on: mammary carcinoma MCF-7; assay: MTT test on mammary carcinoma MCF-7 cell line; format: cell-based; conditions: Homo sapiens, MCF7
Description: as §1, §5

[12] = literature; cited from earlier work
[13] = molecular target: extrogen receptor GPER (Homo sapiens, UniProt Q99527); conditions: literature; cited from earlier work
Chain of extrogen receptor GPER (Q99527 whole entry): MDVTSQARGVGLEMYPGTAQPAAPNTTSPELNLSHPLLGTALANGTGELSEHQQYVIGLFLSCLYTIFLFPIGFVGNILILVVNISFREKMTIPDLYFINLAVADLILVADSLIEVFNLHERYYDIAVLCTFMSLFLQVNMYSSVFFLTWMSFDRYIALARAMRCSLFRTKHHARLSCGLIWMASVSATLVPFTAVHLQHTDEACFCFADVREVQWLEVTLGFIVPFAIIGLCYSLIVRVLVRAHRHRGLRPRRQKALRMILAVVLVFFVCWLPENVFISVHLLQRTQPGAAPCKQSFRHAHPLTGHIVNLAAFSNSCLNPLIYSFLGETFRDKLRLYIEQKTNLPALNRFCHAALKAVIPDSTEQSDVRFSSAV

SMILES: CC(c1cccc(N)c1)(c1ccc[nH]1)c1ccc[nH]1 [Formula VIII]
- activity [1]: inefficient

SMILES: CC(=O)Nc1cccc(C(C)(c2ccc[nH]2)c2ccc[nH]2)c1 [Formula IV]
- efficacy [2]: have not shown any activity

SMILES: CC(=O)Nc1ccc(C2(C)c3ccc([nH]3)C(C)(C)c3ccc([nH]3)C(C)(C)c3ccc([nH]3)C(C)(C)c3ccc2[nH]3)cc1 [Formula I]
- efficacy compared with Endoxan (cyclophosphamide) [2]: even more efficient than the known chemotherapeutic drug Endoxan
- EC50 [3]: ~15 µM
- efficacy (cellular vitality) [4]: maximum efficacy already at the lowest doses being used (5 μM)
- EC50 [5]: ~20 µM
- effects on the mouse ([6]; sc, 5 mg/kg): without discovering particular effects on the mouse
- effect on the animal ([6]; mouse, ip): has not show any apparent effect on the animal
- peak area in the brain ([7]; NJ, 5 days): 7.735
- peak area in the heart ([7]; NJ, 5 days): 29.443
- peak area in the injection site ([7]; NJ, 5 days): 532.875
- peak area in the kidney ([7]; NJ, 5 days): 120.117
- peak area in the liver ([7]; NJ, 5 days): 11.293
- peak area in the lung ([7]; NJ, 5 days): 32.514
- peak area in the spleen ([7]; NJ, 5 days): 196.233
- passing the hematic-encephalic barrier [7]: actually capable of passing the hematic-encephalic barrier
- adducts with DNA / genotoxicity [8]: adducts with DNA have been identified
- early apoptosis [9]: 9.05%
- late apoptosis [9]: 29.75%
- main death mechanism [9]: apoptosis is the main death mechanism
- necrosis [9]: 9.30%
- total apoptosis [9]: 38.80%
- fragmentation of DNA [10]: have not given any fragmentation of DNA
- EC50 [1]: 1 to 5 µM
- EC50 [11]: ~20 µM

SMILES: CC(=O)Nc1cccc(C2(C)c3ccc([nH]3)C(C)(C)c3ccc([nH]3)C(C)(C)c3ccc([nH]3)C(C)(C)c3ccc2[nH]3)c1 [Formula III]
- efficacy compared with Endoxan (cyclophosphamide) [2]: even more efficient than the known chemotherapeutic drug Endoxan
- EC50 [3]: ~15 µM
- efficacy (cellular vitality) [4]: maximum efficacy already at the lowest doses being used (5 μM)
- EC50 [5]: ~20 µM
- adducts with DNA / genotoxicity [8]: adducts with DNA have been identified; also recorded: higher genotoxicity of the compound of Formula III with respect to the derivative of Formula I
- early apoptosis [9]: 10.25%
- late apoptosis [9]: 13.20%
- main death mechanism [9]: apoptosis is the main death mechanism
- necrosis [9]: 4.75%
- total apoptosis [9]: 23.45%
- fragmentation of DNA [10]: have not given any fragmentation of DNA
- EC50 [1]: ~15 µM
- EC50 [11]: ~20 µM

SMILES: CC1(C)c2ccc([nH]2)C(C)(C)c2ccc([nH]2)C(C)(C)c2ccc([nH]2)C(C)(C)c2ccc1[nH]2 [meso-octametil-calix[4]pyrrole]
- cytotoxicity [12]: has not appeared as cytotoxic
- GPER inhibition [13]: selective inhibitor of the extrogen receptor GPER

SMILES: CC1(C)c2ccc([nH]2)C(C)(C)c2ccc([nH]2)C(C)(c2ccc(N)cc2)c2ccc([nH]2)C(C)(C)c2ccc1[nH]2 [Formula V]
- efficacy [2]: seem not show any efficacy
- fragmentation of DNA [10]: a fragmentation is observed

SMILES: CC(c1ccc(N)cc1)(c1ccc[nH]1)c1ccc[nH]1 [Formula VI]
- activity [1]: inefficient

SMILES: CC(=O)Nc1ccc(C(C)(c2ccc[nH]2)c2ccc[nH]2)cc1 [Formula II]
- efficacy [2]: have not shown any activity

SMILES: CC1(C)c2ccc([nH]2)C(C)(C)c2ccc([nH]2)C(C)(c2cccc(N)c2)c2ccc([nH]2)C(C)(C)c2ccc1[nH]2 [Formula VII]
- efficacy [2]: seem not show any efficacy
- activity [3]: has not shown any activity
- EC50 [5]: 20 to 30 µM
- fragmentation of DNA [10]: a fragmentation is observed
- EC50 [1]: ~15 µM
- EC50 [11]: 20 to 30 µM
